Several values for one entry are separate records, joined by “and”; a condition that tells them apart may be missing. Equal entries are not always repeated.
Tests used:
HDAC6 = molecular target: T1, HDAC6 (Homo sapiens, UniProt Q9UBN7); test: HDAC6 fluorogenic activity assay; details: for % Activity: Repeat1/Repeat2, listed as OA2
T1 sequence (Q9UBN7 1-1215): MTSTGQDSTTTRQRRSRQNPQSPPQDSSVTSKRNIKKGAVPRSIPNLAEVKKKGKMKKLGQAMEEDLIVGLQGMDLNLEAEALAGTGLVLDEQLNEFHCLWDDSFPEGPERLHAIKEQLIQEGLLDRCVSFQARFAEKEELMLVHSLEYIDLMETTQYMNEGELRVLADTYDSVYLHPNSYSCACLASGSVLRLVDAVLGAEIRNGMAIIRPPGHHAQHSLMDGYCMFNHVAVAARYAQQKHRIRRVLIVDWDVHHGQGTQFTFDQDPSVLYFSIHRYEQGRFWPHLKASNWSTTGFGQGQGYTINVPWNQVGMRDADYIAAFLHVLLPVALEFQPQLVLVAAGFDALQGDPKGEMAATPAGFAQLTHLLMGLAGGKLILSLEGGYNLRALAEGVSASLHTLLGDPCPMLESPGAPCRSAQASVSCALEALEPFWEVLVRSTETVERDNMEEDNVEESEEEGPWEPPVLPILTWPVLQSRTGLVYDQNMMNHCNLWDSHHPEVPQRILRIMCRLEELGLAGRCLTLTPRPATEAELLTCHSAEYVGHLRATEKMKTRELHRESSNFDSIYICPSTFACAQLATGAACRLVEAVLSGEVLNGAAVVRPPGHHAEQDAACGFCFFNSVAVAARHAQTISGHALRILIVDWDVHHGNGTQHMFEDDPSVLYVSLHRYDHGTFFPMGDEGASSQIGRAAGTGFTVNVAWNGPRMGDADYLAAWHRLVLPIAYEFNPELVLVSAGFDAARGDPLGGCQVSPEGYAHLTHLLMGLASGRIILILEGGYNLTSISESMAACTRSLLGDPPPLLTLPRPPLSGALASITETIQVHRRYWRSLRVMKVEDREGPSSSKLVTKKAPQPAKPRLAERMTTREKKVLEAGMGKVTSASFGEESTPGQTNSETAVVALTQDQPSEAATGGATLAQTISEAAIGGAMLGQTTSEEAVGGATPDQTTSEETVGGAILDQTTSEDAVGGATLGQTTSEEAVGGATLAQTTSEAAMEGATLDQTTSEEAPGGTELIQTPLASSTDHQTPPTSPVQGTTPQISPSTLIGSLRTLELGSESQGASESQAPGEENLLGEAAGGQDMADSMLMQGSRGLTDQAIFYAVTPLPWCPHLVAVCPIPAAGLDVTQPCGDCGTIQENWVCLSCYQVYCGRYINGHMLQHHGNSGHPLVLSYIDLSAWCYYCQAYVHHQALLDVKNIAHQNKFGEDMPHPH

YAC128 mice = test: Open field in YAC128 Huntington's Disease mice; format: in vivo; details: for effect of treatment on total locomotion (distance traveled, 30 min): age 6 mo., YF2 5 mg/kg
Experimental: Animals: Mouse models of Huntington's Disease (YAC128) versus wildtype (WT) littermates.
Open field: This assay is a common assay used to monitor total spontaneous locomotor activity and exploratory behavior in mouse models of Huntington's disease (HD). The spontaneous locomotor activity of the animals was measured using an automated photo-beam open-field system (Med-Associates, St Albans, Vt.). Mice were placed individually in the center of a clear open-field chamber (27.9 cm×27.9 cm×20 cm), and their horizontal and vertical activities were measured immediately for 30 min with three 16-beam UR arrays. Locomotor activity was assessed as the distance traveled in 5-min intervals. The number of mice typically used for open field range from 12 to 15 mice.

For CCOc1cccc(OCCN(C)C)c1C(=O)Nc1ccc(Cl)c(C(F)(F)F)c1 [YF2], the IC50 (HDAC6) was greater than 200 µM, the “% Activity” value (HDAC6; OA2 Log[nM] 0.5) was 104.75% and 106.28% and the “% Activity” value (HDAC6; OA2 Log[nM] 1.0) was 106.10% and 100.51%. For the same compound, the “% Activity” value (HDAC6; OA2 Log[nM] 1.5) was 96.75% and 108.50%, the “% Activity” value (HDAC6; OA2 Log[nM] 2.0) was 100.33% and 105.31% and the “% Activity” value (HDAC6; OA2 Log[nM] 2.5) was 99.30% and 99.28%. The “% Activity” value (HDAC6; OA2 Log[nM] 3.0) was 100.06% and 94.62%, the “% Activity” value (HDAC6; OA2 Log[nM] 3.5) was 96.79% and 97.61% and the “% Activity” value (HDAC6; OA2 Log[nM] 4.0) was 94.62% and 100.10%. The “% Activity” value (HDAC6; OA2 Log[nM] 4.5) was 79.13% and 87.65%, the “% Activity” value (HDAC6; OA2 Log[nM] 5.3) was 70.40% and 102.77% and the “effect of treatment on total rearing or vertical movements” value (YAC128 mice; female YAC128 mice) was “no significant effect”. For the same compound, the “effect of treatment on total locomotion (distance traveled, 30 min)” value (YAC128 mice; female mice) was “diminish significantly (i.e. worsen)”, the “effect of treatment on total rearing or vertical movements” value (YAC128 mice; male YAC128 mice) was “no significant effect” and the “effect of treatment on total locomotion (distance traveled, 30 min)” value (YAC128 mice; male mice) was “no significant effect”.
